pIC50: −log10 of the molar value. Values joined by “and” are separate entries in the source; they are usually repeats but may differ in a detail not shown here. Equal entries are not always repeated.
Molecular target: T1, Seed linoleate 13S-lipoxygenase-1 (Glycine max, UniProt P08170)
T1 sequence (P08170 whole entry): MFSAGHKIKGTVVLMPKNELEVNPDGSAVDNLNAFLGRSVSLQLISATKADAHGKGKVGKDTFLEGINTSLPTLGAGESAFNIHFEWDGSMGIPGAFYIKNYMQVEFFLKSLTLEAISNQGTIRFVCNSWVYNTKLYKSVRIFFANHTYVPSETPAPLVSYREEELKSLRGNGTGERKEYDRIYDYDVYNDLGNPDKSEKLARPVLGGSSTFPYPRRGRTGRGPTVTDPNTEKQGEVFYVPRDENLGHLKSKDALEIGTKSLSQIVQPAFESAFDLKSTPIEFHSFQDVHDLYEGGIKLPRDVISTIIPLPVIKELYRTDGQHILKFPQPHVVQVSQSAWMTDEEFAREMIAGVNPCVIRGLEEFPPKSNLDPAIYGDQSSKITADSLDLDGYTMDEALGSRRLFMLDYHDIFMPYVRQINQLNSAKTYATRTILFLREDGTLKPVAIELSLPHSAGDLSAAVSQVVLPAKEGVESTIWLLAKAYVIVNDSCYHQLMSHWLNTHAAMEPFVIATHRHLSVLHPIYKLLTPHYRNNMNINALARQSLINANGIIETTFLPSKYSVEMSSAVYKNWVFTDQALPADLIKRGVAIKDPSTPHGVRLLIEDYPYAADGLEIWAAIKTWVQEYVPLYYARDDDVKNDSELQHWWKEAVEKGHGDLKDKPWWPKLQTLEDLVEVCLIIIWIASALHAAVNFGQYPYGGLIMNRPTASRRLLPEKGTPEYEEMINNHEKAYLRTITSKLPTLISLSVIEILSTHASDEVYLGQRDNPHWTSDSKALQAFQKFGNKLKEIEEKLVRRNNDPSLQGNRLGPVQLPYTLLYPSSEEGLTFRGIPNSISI
Assay: Lipo-oxygenase Inhibitory Assay
Settings: pH 7; 25 °C
Protocol: Solution A was 50 mm DMAB in an 100 mm phosphate buffer (pH 7.0). Solution B was a mixture of 10 mm MBTH (3 mL) and hemoglobin (5 mg/mL, 3 mL) in 50 mm phosphatebuffer at pH 5.0 (25 mL). A linoleic acid solution was prepared by mixing 5 mg of linoleic acid with 50 mg Tween-20 in 3 mL water and then diluted with KOH 100 mmto a final volume of 5 mL. In the standard assay, the sample in ethanol (25 uL), SLO (EC 1,13,11,12; 4000 units/mL; 25 uL) and phosphate buffer, pH 7.0 (50 mm; 900 uL), were mixed in a test-tube and preincubation was carried out for 5 min at room temperature. A control test was done with the same volume of ethanol. Afterthe preincubation, linoleic acid solution (50 uL) was added to start the peroxidation reaction, and, 7 min later, solution A (270 uL) and then solution B (130 uL) were added to start the color formation. Further, 5 min later, 200 uL of a 2% SDS solution was added to terminate the reaction.

SMILES | pIC50
COc1cc(C)cc(OC)c1C/C=C(\C)CCC=C(C)C [(E)-2-(3,7-Dimethylocta-2,6-dien-1-yl)-1,3-dimethoxy-5-methylbenzene (10)] | 5.28
C=CCc1cc(OC)cc(OC)c1 [1-Allyl-3,5-dimethoxybenzene (2)] | 4.36
COc1cc(C)cc(OC)c1CC=C(C)C [1,3-Dimethoxy-5-methyl-2-(3-methylbut-2-en-1-yl)benzene (9)] | 5.12
C=CCc1ccc(OC)c(OC)c1 [METHYLEUGENOL] | 4.48
Cc1nc(N2CCN(C)CC2)nc2c1Nc1ccccc1S2 [4-MMPB] | 4.65
C=CCc1c(OC)cc(OC)cc1OC [2-Allyl-1,3,5-trimethoxybenzene (7)] | 4.08
COc1cc(C)cc(OC)c1C/C=C(\C)CC/C=C(\C)CCC=C(C)C [1,3-Dimethoxy-5-methyl-2-((2E,6E)-3,7,11-trimethyldodeca-2,6,10-trien-1-yl)benzene (11)] | 6.28

Results, then the compound that gave them:

pIC50 | SMILES
4.52 | C=CCc1c(OC)cc(C)cc1OC [2-Allyl-1,3-dimethoxy-5-methylbenzene (8)]
3.89 | C=CCc1cccc(OC)c1OC [1,2-dimethoxy-3-(prop-2-en-1-yl)benzene (3)]
4.50 and 3.99 | C=CCc1ccc(OC)cc1OC [1-Allyl-2,4-dimethoxybenzene (5)]
4.27 | C=CCc1c(OC)cccc1OC [2-Allyl-1,3-dimethoxybenzene (6)]

Source: BindingDB's records for doi:10.1111/cbdd.12779 (Ferdowsi University of Mashhad, 2016)
